Key:
RBL-FMB cells [1] = assay: TIRF based mitosis monitoring system, cells treated with TAXOL; assay type: cell-based, rat
Experimental: Rat Basophilic Leukemia Cells (RBL) were grown in Dulbecco's modified Eagles Media (DMEM) supplemented with 10% fetal calf serum, 2 mM glutamine, 100 U/ml penicillin, and 100 μg/ml streptomycin (all from Invitrogen, Carlsbad, Calif.). 10 million cells were electroporated (BioRad, Hercules, Calif.) in 600 μl of media with 40 μg of pFMB. These were allowed to recover for 48 hours and cells stably expressing the biosensor were selected for by the addition of 1 μg/ml Geneticin (Invitrogen, Carlsbad, Calif.). 10 days after the addition of Geneticin the cells were sorted based on EYFP fluorescence using a fluorescence activated cell sorter.
TIRF microscopy was carried out as described previously (Tengholm et al., Science's Stke. 2003 PL4 (2004)). Briefly, an argon-ion laser provided 514-nm laser light for excitation of the biosensor (Lexel Laser, Fremont, Calif.). Exposure of the RBL-FMBs to laser light was controlled by a Uniblitz shutter (Vincent, Rochester, N.Y.). Laser light homogenized with a rotating diffuser (Physical Optics, Torrance, Calif.) was refocused onto a dove prism at an angle yielding total internal reflection (>[…] for a glass-water interface at 37° C.). The excitation light could also be redirected to the back of the microscope and down to the sample via appropriate dichroic mirrors (Chroma Technology, Brattleboro, Vt.) for epi-illumination. Fluorescence was recorded at 530 nm with bandpass interference filters (30-50 nm half-bandwidth; Chroma Technology, Brattleboro, Vt.) mounted in a Sutter Lambda 10-2 filter wheel (Sutter Instrument, Novato, Calif.). Images were captured every 2 minutes with a cooled CCD camera (Micromax; Roper Scientific, Tuscon, Azir.). The shutters, filter wheel, and camera were controlled by Metamorph software (Universal Imaging, Downington, Pa.).
Both systems were heated with an ASI 400 Air Stream Incubator (Nevtek, Burnsville, Va.). The cells were perfused with fresh growth media saturated with 10% CO2 that was heated with an inline solution heater (Warner Instruments, Hamden, Conn.).
Metamorph software (Universal Imaging, Downington Pa.) was used for data image analysis. Fluorescence intensity was recorded over the entire stack of images by drawing regions of interest over each mitotic cell. Background correction was performed by subtracting the intensity of a background region of identical size next to each cell to account for the somewhat uneven background in the field of view over the time of the data collection. Background corrected intensity values were exported to a Microsoft Excel file and plotted. NEB was determined as the time just prior to the dramatic increase in fluorescence intensity. Anaphase onset is defined as the time point immediately preceding the second smaller increase in fluorescence. NER was determined as the point in time when fluorescence intensity starts to decrease back to baseline levels.

RBL-FMB cells [2] = assay: Mitotic index by immunofluorescence; assay type: cell-based, rat; settings: 20 hours
Experimental: Mitotic index was determined as previously described (Jordan et al., […] 56:816-825 (1996)). Briefly, 15,000 RBL-FMB cells plated in 8 well Labtek chambers (Nalge Nunc, Naperville, Ill.) and exposed to paclitaxel (Sigma Aldrich, St Louis) for 20 hours. The cells were fixed and permeablized with −20° C. cold methanol for 5 minutes at −20° C. They were blocked with 10% fetal calf serum in PBS for 10 minutes at RT. Alpha Tubulin was detected with a mouse monoclonal antibody clone GTU-88 (Sigma Aldrich, St. Louis Mo.). DNA was stained with Hoescht 33342 (Molecular Probes, Eugene, Oreg.). Only cells that were clearly in metaphase or anaphase were counted as a percentage of the total. The cells were imaged with a Zeiss epifluorescence microscope (Carl Zeiss, Germany).

Hela cells = settings: cited from earlier work

## CC(=O)O[C@H]1C(=O)[C@@]2(C)[C@H]([C@H](OC(=O)c3ccccc3)[C@]3(O)C[C@H](OC(=O)[C@H](O)[C@@H](NC(=O)c4ccccc4)c4ccccc4)C(C)=C1C3(C)C)[C@]1(OC(C)=O)CO[C@@H]1C[C@@H]2O [TAXOL™, paclitaxel]
RBL-FMB cells [1]; 10 nM
  Mitotic arrest: arrested for the duration of the experiment
RBL-FMB cells [1]; [Taxol] 0.01
  Anaphase-NER Ave.: 8.4 min
  Anaphase-NER Med.: 8 min
  NEB-NER Med.: 34 min
  NEB-anaphase Ave.: 28.4 min
  NEB-anaphase Med.: 26 min
RBL-FMB cells [1]; [Taxol] 0.01 (10 pM in text)
  NEB-NER Ave.: 35.6 min
RBL-FMB cells [1]; [Taxol] 0.1
  Anaphase-NER Ave.: 8.8 min
  Anaphase-NER Med.: 8 min
  NEB-NER Ave.: 38.1 min
  NEB-NER Med.: 36 min
  NEB-anaphase Ave.: 29.6 min
  NEB-anaphase Med.: 26 min
RBL-FMB cells [1]; [Taxol] 1
  Anaphase-NER Ave.: 10.3 min
  Anaphase-NER Med.: 10 min
  NEB-NER Ave.: 40.0 min
  NEB-NER Med.: 38 min
  NEB-anaphase Ave.: 29.8 min
  NEB-anaphase Med.: 28 min
RBL-FMB cells [1]; [Taxol] 3
  Anaphase-NER Ave.: 10.3 min
  Anaphase-NER Med.: 8 min
  NEB-NER Ave.: 62.8 min
  NEB-NER Med.: 50 min
  NEB-anaphase Ave.: 44.6 min
  NEB-anaphase Med.: 34 min
RBL-FMB cells [1]; [Taxol] 4
  Anaphase-NER Ave.: 9.8 min
  Anaphase-NER Med.: 10 min
  NEB-NER Ave.: 89.7 min
  NEB-NER Med.: 70 min
  NEB-anaphase Ave.: 77.7 min
  NEB-anaphase Med.: 60 min
RBL-FMB cells [1]; [Taxol] 5
  Anaphase-NER Ave.: 11.3 min
  Anaphase-NER Med.: 12 min
  NEB-NER Ave.: 112.2 min
  NEB-NER Med.: 102 min
  NEB-anaphase Ave.: 107.4 min
  NEB-anaphase Med.: 114 min
RBL-FMB cells [1]; [Taxol] 6
  Anaphase-NER Ave.: 13.3 min
  Anaphase-NER Med.: 11 min
  NEB-NER Ave.: 194.5 min
  NEB-NER Med.: 186 min
  NEB-anaphase Ave.: 183.3 min
  NEB-anaphase Med.: 175 min
RBL-FMB cells [1]; [Taxol] 7.5
  Anaphase-NER Ave.: 12.3 min
  Anaphase-NER Med.: 12 min
  NEB-NER Ave.: 202.1 min
  NEB-NER Med.: 195 min
  NEB-anaphase Ave.: 171.1 min
  NEB-anaphase Med.: 166 min
RBL-FMB cells [1]; [Taxol] 8
  Anaphase-NER Ave.: 12.1 min
  Anaphase-NER Med.: 12 min
  NEB-NER Ave.: 192.7 min
  NEB-NER Med.: 189 min
  NEB-anaphase Ave.: 180.3 min
  NEB-anaphase Med.: 178 min
RBL-FMB cells [1]; increasing TAXOL
  anaphase to NER phase (post-checkpoint): smaller and ungraded effects
  timing between NEB and anaphase (pre-checkpoint mitosis phase): significantly prolonged
RBL-FMB cells [2]; higher taxol concentrations
  percentage of mitotic cells (mitotic index): increased
RBL-FMB cells [2]; low TAXOL concentrations
  effects on mitotic index: went unseen
Hela cells
  microtubule stabilization effect, concentration range: nM concentration range

— patent US7655434B2, “Live-cell biosensor polypeptides and methods of use” (The Board of Trustees of the Leland Stanford Junior …, priority 2004, dated 2010)
